Test results as given in ChEMBL document CHEMBL1138506, “Exploration of structure-activity relationship determinants in analogue series” (J Med Chem, 2009).

Assays:
Cytochrome P450 3A4 = Cytochrome P450 3A4 (Homo sapiens, UniProt P08684); assay: Inhibition of human CYP3A4; assay type: ADME
[1] = biological target: T1, Peroxisomal multifunctional enzyme type 2 (Homo sapiens) (UniProt P51659); assay: Inhibition of hydroxysteroid-17-beta dehydrogenase 4
T1 sequence (whole entry): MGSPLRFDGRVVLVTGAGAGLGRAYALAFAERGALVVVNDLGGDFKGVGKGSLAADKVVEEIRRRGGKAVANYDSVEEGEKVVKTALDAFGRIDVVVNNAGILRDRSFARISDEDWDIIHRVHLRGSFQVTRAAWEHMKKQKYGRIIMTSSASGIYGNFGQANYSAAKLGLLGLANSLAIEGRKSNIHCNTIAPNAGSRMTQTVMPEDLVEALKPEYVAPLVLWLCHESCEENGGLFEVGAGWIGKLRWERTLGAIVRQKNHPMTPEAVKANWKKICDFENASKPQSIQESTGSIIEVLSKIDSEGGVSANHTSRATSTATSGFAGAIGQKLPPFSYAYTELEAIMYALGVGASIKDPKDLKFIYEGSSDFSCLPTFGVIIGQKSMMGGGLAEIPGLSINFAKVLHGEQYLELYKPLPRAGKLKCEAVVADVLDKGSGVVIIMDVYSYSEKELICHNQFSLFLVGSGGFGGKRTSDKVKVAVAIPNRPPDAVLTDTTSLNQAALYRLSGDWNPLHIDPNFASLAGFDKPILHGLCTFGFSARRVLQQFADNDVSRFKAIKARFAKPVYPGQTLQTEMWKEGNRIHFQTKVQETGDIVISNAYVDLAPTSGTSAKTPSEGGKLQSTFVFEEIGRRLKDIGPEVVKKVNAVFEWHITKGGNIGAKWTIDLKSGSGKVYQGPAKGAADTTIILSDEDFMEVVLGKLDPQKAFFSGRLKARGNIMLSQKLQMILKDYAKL

[2] = biological target: Prothrombin (Homo sapiens) (UniProt P00734); assay: Inhibition of human thrombin

Chain of Cytochrome P450 3A4 (P08684 whole entry): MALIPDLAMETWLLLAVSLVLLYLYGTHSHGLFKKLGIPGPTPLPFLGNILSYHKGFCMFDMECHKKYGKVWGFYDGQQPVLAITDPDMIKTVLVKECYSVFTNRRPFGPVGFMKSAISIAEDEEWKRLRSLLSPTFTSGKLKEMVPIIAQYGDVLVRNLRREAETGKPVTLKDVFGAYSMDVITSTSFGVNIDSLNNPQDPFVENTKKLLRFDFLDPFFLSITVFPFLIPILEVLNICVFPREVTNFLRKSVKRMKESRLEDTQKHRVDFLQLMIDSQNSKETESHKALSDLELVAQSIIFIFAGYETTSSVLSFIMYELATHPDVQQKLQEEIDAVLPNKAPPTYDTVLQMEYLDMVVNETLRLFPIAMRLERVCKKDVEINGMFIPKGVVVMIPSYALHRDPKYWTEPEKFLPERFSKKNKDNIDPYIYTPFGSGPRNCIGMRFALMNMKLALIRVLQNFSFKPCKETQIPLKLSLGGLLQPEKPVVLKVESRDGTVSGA

Activity (Cytochrome P450 3A4) | SMILES | further results
2 µM | COc1ccc(CNc2ncnc3ccc(-c4ccccc4OC)cc23)c(OC)c1 | 
 | NC(=O)COc1ccc2c3c(c(=O)oc2c1)CCCCC3 | Activity [1]: 25 µM
15.8 µM | CN(C)Cc1ccccc1-c1ccc2ncnc(NCc3ccccc3)c2c1 | 
79 µM | Cc1cccc(CNc2ncncc2-c2ccccc2C(F)(F)F)c1 | 
199 µM | Cc1cccc(CNc2ncncc2-c2ccccc2Cl)c1 | 
1.2 µM | Cc1cccc(CNc2ncnc3ccc(-c4ccccc4C#N)cc23)c1 | 
 | COc1ccc(C(=O)n2nc(-c3ccco3)nc2N)cc1 | Activity [2]: 828 nM
 | CSc1nc(-c2ccco2)nn1C(=O)c1ccccc1 | Activity [2]: 82 nM
1.6 µM | COc1ccc(CNc2ncnc3ccc(-c4cccc(C#N)c4)cc23)c(OC)c1 | 
1259 µM | N#Cc1cccc(-c2cncnc2NCc2ccccc2)c1 | 
8 µM | COc1ccccc1CNc1ncnc2ccc(-c3cccc(C#N)c3)cc12 | 
251 µM | COc1ccccc1CNc1ncncc1-c1cccc(NS(C)(=O)=O)c1 | 
79 µM | COc1ccccc1CNc1ncncc1-c1ccccc1C(F)(F)F | 
4 µM | COc1ccccc1CNc1ncnc2ccc(-c3ccccc3C#N)cc12 | 
2512 µM | CN(C)C(=O)c1ccc(-c2cncnc2NCc2ccccc2)cc1 | 
 | COc1ccccc1C(=O)n1nc(-c2ccco2)nc1N | Activity [2]: 6930 nM
2.5 µM | CN(C)c1ccc(-c2ccc3ncnc(NCc4ccccc4)c3c2)cc1 | 
4 µM | COc1ccc(CNc2ncnc3ccc(-c4ccc(N(C)C)cc4)cc23)c(OC)c1 | 
 | COc1ccccc1C(=O)n1nc(-c2ccco2)nc1SC | Activity [2]: 1 nM
 | COc1ccc(C(=O)n2nc(-c3ccco3)nc2SC)cc1OC | Activity [2]: 204 nM
199 µM | COc1ccccc1CNc1ncncc1-c1ccccc1Cl | 
8 µM | COc1ccc(CNc2ncnc3ccc(-c4ccccc4CN(C)C)cc23)c(OC)c1 | 

Activity (Cytochrome P450 3A4) | SMILES | further results
501 µM | COc1cccc(-c2cncnc2NCc2ccc(OC)cc2OC)c1 | 
158 µM | Cc1cccc(CNc2ncncc2-c2cccc(NS(C)(=O)=O)c2)c1 | 
199 µM | COc1ccc(CNc2ncncc2-c2ccc(N(C)C)cc2)c(OC)c1 | 
2 µM | COc1ccccc1CNc1ncnc2ccc(-c3ccc(N(C)C)cc3)cc12 | 
316 µM | COc1ccc(CNc2ncncc2-c2ccccc2OC)c(OC)c1 | 
 | CSc1nc(-c2ccco2)nn1C(=O)c1ccc(C)cc1 | Activity [2]: 159 nM
3.2 µM | COc1ccccc1CNc1ncnc2ccc(-c3cccc(NS(C)(=O)=O)c3)cc12 | 
199 µM | Cc1cccc(CNc2ncncc2-c2cccc(C#N)c2)c1 | 
6.3 µM | COc1ccccc1CNc1ncnc2ccc(-c3ccccc3OC)cc12 | 
398 µM | COc1ccc(CNc2ncncc2-c2ccccc2C)c(OC)c1 | 
251 µM | COc1ccc(CNc2ncncc2-c2cccc(NS(C)(=O)=O)c2)c(OC)c1 | 
 | Nc1nc(-c2ccco2)nn1C(=O)c1ccc(Cl)cc1 | Activity [2]: 1460 nM
501 µM | COc1ccc(CNc2ncncc2-c2ccc(C(=O)N(C)C)cc2)c(OC)c1 | 
1 µM | COc1ccc(CNc2ncnc3ccc(-c4ccccc4C#N)cc23)c(OC)c1 | 
501 µM | COc1cccc(-c2cncnc2NCc2ccccc2OC)c1 | 
 | Nc1nc(-c2ccco2)nn1C(=O)c1ccccc1Cl | Activity [2]: 14000 nM
316 µM | COc1cccc(-c2cncnc2NCc2ccccc2)c1 | 
398 µM | Cc1cccc(CNc2ncncc2-c2ccccc2C)c1 | 
100 µM | COc1ccccc1-c1cncnc1NCc1cccc(C)c1 | 
398 µM | COc1cccc(-c2cncnc2NCc2cccc(C)c2)c1 | 
 | Nc1nc(-c2ccco2)nn1C(=O)c1ccccc1 | Activity [2]: 926 nM
2.5 µM | COc1ccc(CNc2ncnc3ccc(-c4ccc(C(=O)N(C)C)cc4)cc23)c(OC)c1 | 

Activity (Cytochrome P450 3A4) | SMILES | further results
 | COC(=O)C(C)Oc1ccc2c3c(c(=O)oc2c1)CCCCC3 (stereo not given) | Activity [1]: 32 µM
316 µM | COc1ccc(CNc2ncncc2-c2cccc(C#N)c2)c(OC)c1 | 
2512 µM | COc1ccccc1CNc1ncncc1-c1ccc(C(=O)N(C)C)cc1 | 
199 µM | COc1ccc(CNc2ncncc2-c2ccccc2OC)cc1 | 
316 µM | Cc1ccccc1-c1cncnc1NCc1ccccc1 | 
631 µM | CS(=O)(=O)Nc1cccc(-c2cncnc2NCc2ccccc2)c1 | 
2.5 µM | COc1cccc(-c2ccc3ncnc(NCc4ccc(OC)cc4OC)c3c2)c1 | 
12.6 µM | COc1ccccc1-c1ccc2ncnc(NCc3ccccc3)c2c1 | 
251 µM | COc1ccccc1-c1cncnc1NCc1ccccc1 | 
631 µM | Cc1cccc(CNc2ncncc2-c2ccc(C(=O)N(C)C)cc2)c1 | 
2 µM | COc1ccc(CNc2ncnc3ccc(-c4cccc(NS(C)(=O)=O)c4)cc23)c(OC)c1 | 
398 µM | COc1ccc(CNc2ncncc2-c2ccccc2CN(C)C)c(OC)c1 | 
 | Cc1ccc(C(=O)n2nc(-c3ccco3)nc2N)cc1 | Activity [2]: 741 nM
 | CC(=O)COc1ccc2c3c(c(=O)oc2c1C)CCCCC3 | Activity [1]: 13 µM
15.8 µM | CN(C)C(=O)c1ccc(-c2ccc3ncnc(NCc4ccccc4)c3c2)cc1 | 
 | CC(=O)C(C)Oc1ccc2c3c(c(=O)oc2c1)CCCCC3 (stereo not given) | Activity [1]: 25 µM
12.6 µM | COc1ccccc1CNc1ncnc2ccc(-c3ccccc3CN(C)C)cc12 | 
10 µM | COc1ccccc1CNc1ncnc2ccc(-c3ccc(C(=O)N(C)C)cc3)cc12 | 
316 µM | COc1ccc(CNc2ncncc2-c2ccccc2C(F)(F)F)c(OC)c1 | 
 | COc1ccc(C(=O)n2nc(-c3ccco3)nc2N)cc1OC | Activity [2]: 2230 nM
2 µM | Cc1cccc(CNc2ncnc3ccc(-c4ccc(C(=O)N(C)C)cc4)cc23)c1 | 
